Like-named read-outs stand apart in the source and are kept apart here.
How the values were obtained:
P. aeruginosa ATCC 27853 = experiment: Tobramycin uptake studies (3H-tobramycin); format: cell-based, Pseudomonas aeruginosa; details: 10 μg/mL fosfomycin, 3H-tobramycin 2.3 μg/mL, FIG. 7
Method: The effects of fosfomycin uptake on tobramycin uptake were determined by measuring uptake of ^3H-tobramycin. A single colony of P. aeruginosa ATCC 27853 was inoculated into 5 mL nutrient broth (NB) (Difco & BBL; Sparks, Md.) and grown overnight at 37° C. with shaking (250 rpm). […] Five milliliter volumes were filtered through 0.45 μm nitrocellulose membrane filters (Whatman Inc., Florham Park, N.J.), pre-soaked with 410 mM MgCl2 (VWR). […] Data were expressed in CPM and represent the mean±SD of four independent experiments. Statistical differences were evaluated by the Student's t-test.

[1] = system: Cell Wall Synthesis in P. aeruginosa ATCC 27853; experiment: Macromolecular biosynthesis: 3H-N-acetyl-D-glucosamine incorporation; format: cell-based, Pseudomonas aeruginosa; details: at 2 h relative to no-drug control, single experiment
Method: Picataway, N.J.) and N-acetyl-D-Glucosamine (^3H-NAG) (GE Healthcare Bio-Sciences), respectively (Baum, E Z, Antimicrob Agents Chernother 2001; 45 (11): 3182-3188). A single colony of P. aeruginosa ATCC 27853 was inoculated into 10 mL of CAMHB and incubated for 16 h, at 37° C., 200 rpm in a shaking water bath. […] At various time points, 100 μl aliquots (triplicate) of culture were removed and added to 100 μl of 20% TCA (VWR) in 96-well flat bottom trays (VWR). Plates were incubated on crushed ice for 60 min to precipitate the incorporated ^3H-precursors. Samples were harvested onto glass fibre filters (GFC) (PerkinElmer; Waltham, Mass.). Filters were washed two times with 35 mL of normal saline to remove unincorporated isotope followed by one wash with 35 mL of 90% ETOH (VWR). Filters were dried under a lamp for 1 h to reduce remaining moisture and then sealed in bags containing 5 mL of scintillation cocktail (Betaplate Scint; PerkinElmer). Counts per minute (CPM) were determined using a Wallac MicroBeta Trilux (PerkinElmer). Mean CPM±standard deviation (SD) were determined for each treatment group. Background counts consisting of a media-only sample were subtracted from the no-drug and antibiotic treatment groups. The percent inhibition of incorporation was determined relative to the no-drug controls. The activities of the three drugs were compared by calculating the time to 50% inhibition (T1/2), and statistical differences at each time point were evaluated by the Analysis of Variance (ANOVA; GraphPad Prisma software package 3.03; GraphPad Software, Inc., San Diego, Calif.). Each curve represents 4 replicate experiments, each time point performed in triplicate.

E. coli = format: cell-based, Escherichia coli
Method: Development of resistance after a single exposure to antibiotic was determined for both clinical and reference isolates of P. aeruginosa, S. aureus, and E. coli. Late Log-phase cultures were centrifuged at 1,400×g at room temperature for 20 min and the cell pellets resuspended in CAMHB. […] The culture plates were incubated at 37° C. for 48 h and the number of colonies on each plate was enumerated manually. The spontaneous mutation frequency (SMF) resulting in antibiotic resistance was calculated by dividing the number of bacteria growing at the defined antibiotic concentration by the number of bacteria in the inoculum (Martinex, J L, Antimicrob Agents Chemother 2000; 44 (1):1771-1777).

S. aureus = experiment: MIC by agar plate dilution method (CLSI); format: cell-based, Staphylococcus aureus
Excerpt: P. aeruginosa strains isolated from patients with cystic fibrosis (CF) were obtained from Children's Hospital and Regional Medical Center (Seattle, Wash.). Clinical isolates of Escherichia coli and Staphylococcus aureus were obtained from The Jones Group Laboratories (JMI; North Liberty, Iowa) and The Clinical Microbiology Institute (CMI; Wilsonville, Oreg.). P. aeruginosa 27853, S. aureus 29213, and E. coli 25922 served as quality control strains^1 and were obtained from The America Type Culture Collection (ATCC; Manassas, Va.). P. aeruginosa ATCC 27853, a fosfomycin and tobramycin susceptible strain, was used in macromolecular biosynthesis and tobramycin uptake experiments. Stock cultures were maintained at −80° C. in Cation-Adjusted Mueller-Hinton Broth (CAMHB) (Remel; Lenexa, Kans.) supplemented with 20% glycerol (VWR: West Chester, Pa.). Cultures for routine use were grown on tryptic soy agar plates+5% sheeps blood (PML Microbiologicals Inc.; Wilsonville, Oreg.) and stored at 4° C.
MICs were determined by the agar plate dilution method according to CLSI guidelines (National Committee for Clinical Laboratory Standards. M7-A6. 6th ed. Villanova (Pa.): NCCLS, 2003; M100-S14. Villanova (Pa.): NCCLS, 2004).

Compound	Frequency of Resistance 4× MIC (E. coli; E. coli ATCC 25922, 4× MIC)	Frequency of Resistance 8× MIC (E. coli; E. coli ATCC 25922, 8× MIC)	Frequency of Resistance 16× MIC (E. coli; E. coli ATCC 25922, 16× MIC)	Frequency of Resistance 4× MIC (E. coli; E. coli C032, 4× MIC)	Frequency of Resistance 8× MIC (E. coli; E. coli C032, 8× MIC)	Frequency of Resistance 16× MIC (E. coli; E. coli C032, 16× MIC)	Frequency of Resistance 4× MIC (E. coli; E. coli C036, 4× MIC)	Frequency of Resistance 8× MIC (E. coli; E. coli C036, 8× MIC)	Frequency of Resistance 16× MIC (E. coli; E. coli C036, 16× MIC)	Frequency of Resistance 4× MIC (E. coli; E. coli C037, 4× MIC)	Frequency of Resistance 8× MIC (E. coli; E. coli C037, 8× MIC)	Frequency of Resistance 16× MIC (E. coli; E. coli C037, 16× MIC)	Frequency of Resistance 4× MIC (E. coli; E. coli C294, 4× MIC)	Frequency of Resistance 8× MIC (E. coli; E. coli C294, 8× MIC)	Frequency of Resistance 16× MIC (E. coli; E. coli C294, 16× MIC)	other results
C[C@@H]1O[C@@H]1P(=O)(O)O [Fosfomycin, fosfomycin disodium]	1.9 × 10^−5	6.0 × 10^−6	2.5 × 10^−5	4.4 × 10^−5	7.8 × 10^−5	2.1 × 10^−6	1.1 × 10^−6	2.3 × 10^−6	3.4 × 10^−6	1.9 × 10^−6	2.9 × 10^−6	8.6 × 10^−6	7.9 × 10^−5	5.4 × 10^−5	6.3 × 10^−5	increase in 3H-tobramycin uptake relative to the no-fosfomycin control (P. aeruginosa ATCC 27853): 170%; inhibition at 3.2 µg/mL ([1]; Pseudomonas aeruginosa, ATCC27853, 3.2 μg/mL): 8%; inhibition at 6.4 µg/mL ([1]; Pseudomonas aeruginosa, ATCC27853, 6.4 μg/mL): 14%; inhibition at 12.8 µg/mL ([1]; Pseudomonas aeruginosa, ATCC27853, 12.8 μg/mL): 3%; MIC (S. aureus; Staphylococcus aureus, ATCC29213, S. aureus ATCC 29213, read-out: MIC): 2 µg/mL; MIC (S. aureus; Staphylococcus aureus, S. aureus C051, read-out: MIC): 1 µg/mL; MIC (S. aureus; Staphylococcus aureus, S. aureus C053, read-out: MIC): 1 µg/mL; MIC (S. aureus; Staphylococcus aureus, S. aureus C055, read-out: MIC): 8 µg/mL; MIC (S. aureus; Staphylococcus aureus, S. aureus C057, read-out: MIC): 2 µg/mL
tobramycin sulfate	2.5 × 10^−6	1.5 × 10^−7	8.7 × 10^−8	1.3 × 10^−6	5.5 × 10^−6	6.2 × 10^−7	4.4 × 10^−6	4.7 × 10^−7	1.9 × 10^−9	1.0 × 10^−6	4.4 × 10^−6	1.1 × 10^−7	6.6 × 10^−5	1.3 × 10^−6	<7.2 × 10^−9	% Inhibition Cell Wall ([1]; 0.8 μg/mL): 4%; % Inhibition Cell Wall ([1]; 1.6 μg/mL): 10%; % Inhibition Cell Wall ([1]; 3.2 μg/mL): 36%; MIC (S. aureus; S. aureus ATCC 29213): 0.25 µg/mL; MIC (S. aureus; S. aureus C051): 0.25 µg/mL; MIC (S. aureus; S. aureus C053): 0.25 µg/mL; MIC (S. aureus; S. aureus C055): 0.25 µg/mL; MIC (S. aureus; S. aureus C057): 0.5 µg/mL

— patent publication US20110230431A1, “FOSFOMYCIN/TOBRAMYCIN COMBINATIONS FOR THE TREATMENT AND PREVENTION OF OPHTHALMIC, OTOLOGICAL AND DERMATOLOGICAL INFECTIONS” (Gilead Sciences, Inc., priority 2008, published 2011)
